Reference: ChEMBL document CHEMBL3045808, “Insect antifeedants from Munronia henryi: structure of munroniamide” (2003)

What was measured:
Pieris brassicae [1] = assay: Antifeedant activity against fasted third-instar larvae of Pieris brassicae infested in compound-treated Brassica oleracea leaves at 1000 ppm after 48 hr by leaf-disc method relative to control; format: functional
Pieris brassicae [2] = assay: Insecticidal activity against fasted third-instar larvae of Pieris brassicae infested in compound-treated Brassica oleracea leaves assessed as mortality at 1000 ppm after 6 days relative to control; format: functional; settings: 144 h

Row | Structure (SMILES) | Activity (Pieris brassicae [1]) | mortality at 1000 ppm (Pieris brassicae [2])
1 | CCCCCCCCCCCCC/C=C/[C@@H](O)[C@H](CO)NC(=O)[C@H](O)CCCCCCCCCCCCCCCCCCCCCC | 0% | 0%
2 | CCCCCCCCC/C=C\CCC[C@@H](O)[C@@H](O)[C@H](CO[C@@H]1O[C@H](CO)[C@@H](O)[C@H](O)[C@H]1O)NC(=O)[C@H](O)CCCCCCCCCCCCCCCCCCCCCC | 62% | 50%
3 | CCCCCCCCC/C=C/CCC[C@@H](O)[C@@H](O)[C@H](CO)NC(=O)[C@H](O)CCCCCCCCCCCCCCCCCCCCCC | 3% | 0%
4 | C/C=C(\C)C(=O)O[C@H]1C[C@@H](OC(C)=O)[C@@]2(C(=O)OC)CO[C@H]3[C@@H](O)[C@@](C)([C@]45O[C@@]4(C)[C@@H]4C[C@H]5O[C@@H]5OC=C[C@@]54O)[C@H]4[C@]1(CO[C@]4(O)C(=O)OC)[C@@H]32 [AZADIRACHTIN A] | 99.5% | 100%
5 | C=C1[C@@H]2[C@@H](OC(=O)C=C[C@@]2(C)[C@H]2CC(=O)OC2(C)C)[C@H](OC(C)=O)[C@@]2(C)[C@H](C3=CCN(C(=O)CCNN)C3=O)C[C@H]3O[C@]132 [MUNRONIAMIDE] | 27.6% | 10%
